# Test system: HIV-1 (strain LAY-1)
# Assay: Inhibition of HIV virus replication in human peripheral blood mononuclear (PBM) cells
# Type: cell-based
# Details: Human immunodeficiency virus 1, PBMC, 144 h, supernatant RT activity six days after infection, read-out: IC50, 50% inhibition of replication of HIV
# Source text: The group R' in Table 1 represents the cholesterol "tail" of Compound 7 which is connected to the 3'-terminal phosphate through a "linking group" derived from 4-hydroxy-2-hydroxymethylpyrrolidine and carbonyl connecting group. […] The IC50 numbers in Table 1 refer to the concentration of the compound which gives 50% inhibition of replication of HIV in a cell culture of human peripheral blood mononuclear (PBM) cells.
# Cell Culture. Human PBM cells from healthy HIV-1 seronegative and hepatitis B virus seronegative donors were isolated by Ficoll-Hypaque discontinuous gradient centrifugation at 1,000× g for 30 minutes, washed twice in phosphate-buffered saline (pH 7.2; PBS), and pelleted at 300× g for 10 min. […]
# Viruses. […] The virus was propagated in human PBM cells using RPMI 1640 medium, as described previously (McDougal, J. S., Cort, S. P., Kennedy, M. S. Cabridilla, C. D., Feorino, P. M., Francis, D. P., Hicks, D., Kalyanaramen, V. S. and Martin, L. S. (1985): Immunoassay for the detection and quantitation of infectious human retrovirus, lymphadenopathy-associated virus (LAV). J. Immun. Meth. 76:171-183) without PHA or fungizone and supplemented with 26 units/ml of recombinant interleukin-2 (Cetus Corporation, Emeryville, Calif.), 7 μg/ml DEAE-dextran (Pharmacia, Uppsala, Sweden), and 370 U/ml anti-human leukocyte (alpha) interferon (ICN, Lisle, Ill.). […]
compound,measurement,value
"CO[C@@H]1[C@H](O)[C@@H](CO)O[C@H]1n1cnc2c(=S)n(C)cnc21 [Nucleoside, 9(2'-O-methyl-1-β-D-ribofuranosyl)-1-methyl-6-thiopurine]",IC50,~100 µM

# — US5652359A, “Oligonucleotides containing n-methyl thiolated bases having antiviral activity” (Epoch Pharmaceuticals, Inc., priority 1993, dated 1997)
